Source: patent publication US7700080B2, “Method of suppressing melanin production by metal chelates of lipoyl amino acid derivatives” (Senju Pharmaceutical Co., Ltd., priority 2001, dated 2010)

Assays:
[1] = tested on: B16-F0 melanoma cell line; assay: Melanin production suppressing activity in B16-F0 melanoma cells; format: cell-based, mouse; settings: for Melanin amount (% of control): three days with 2 mM theophylline; for Suppressive action on melanin production (in words): summary of Table 2, compared with arbutin or kojic acid
Description: B16-F0 melanoma cell line of mouse origin, purchased from Dainippon Pharmaceutical Co., Ltd. was used in the experiment. In 60-mm petri dish, 200,000 cells were incubated for five days in a medium (D-MEM*+10% FBS*) supplemented with 0.1% D-glucosamine hydrochloride, an inhibitor of carbohydrate synthesis, to halt melanin synthesis and turn the culture white. Following the 5-day culture, the cells were washed with PBS(−)* to remove D-glucosamine hydrochloride, and 2 mM theophylline (250-fold concentrated solution/distilled water), a phosphodiesterase inhibitor, was added to raise intracellular cAMP and thereby promote the recovery of tyrosinase synthesis. At the same time, a test compound (250-fold concentrated solution/PBS(−)) was added. Three days after the addition of theophylline and the test compound, the cells were harvested by trypsin treatment. The cell pellets were resuspended in 1 ml of PBS(−), 0.1 ml of which was used for counting cells, and 0.9 ml for melanin determination. Determination of melanin was carried out by washing the cell pellets once with 5% trichloroacetic acid, ethanol/diethyl ether (3:1), and then diethyl ether, adding 1 ml of 2 N NaOH to lyse the cells, measuring optical density at 420 nm, and comparing the result with a calibration curve produced with reference standard.

elastase = assay: Elastase inhibiting activity (Suc(Ome)-Ala-Ala-Pro-Val-MCA fluorescence); format: biochemical; settings: for Elastase inhibition rate (%): 25° C., pH 7.5; for Elastase inhibiting activity (in words): summary of Table 3
Description: 96-well plates were used. 1 mM of Suc(Ome)-Ala-Ala-Pro-Val-MCA, 30 μl of a test sample, 210 μl of Tris-NaCl Buffer (25° C., pH 7.5) and 30 μl of 1 unit/ml elastase were added and fluorescence was measured every minute (Ex. 360/40 nm, Em. 460/40 nm). Inhibition rates of elastase activity were determined based on a calibration curve produced with AMC (7-amino-4-methyl-coumarin) reference standard.

[2] = molecular target: T1, Tyrosine hydroxylase from rat brain (Rattus norvegicus, UniProt P04177); assay: Tyrosine hydroxylase inhibiting activity; format: biochemical; settings: for Tyrosine hydroxylase inhibition rate: 37° C., 40 minutes, pH 6.0
T1 construct: Tyrosine hydroxylase from rat brain was used in the test; from tissue; host or cells: rat brain
T1 sequence (P04177 whole entry): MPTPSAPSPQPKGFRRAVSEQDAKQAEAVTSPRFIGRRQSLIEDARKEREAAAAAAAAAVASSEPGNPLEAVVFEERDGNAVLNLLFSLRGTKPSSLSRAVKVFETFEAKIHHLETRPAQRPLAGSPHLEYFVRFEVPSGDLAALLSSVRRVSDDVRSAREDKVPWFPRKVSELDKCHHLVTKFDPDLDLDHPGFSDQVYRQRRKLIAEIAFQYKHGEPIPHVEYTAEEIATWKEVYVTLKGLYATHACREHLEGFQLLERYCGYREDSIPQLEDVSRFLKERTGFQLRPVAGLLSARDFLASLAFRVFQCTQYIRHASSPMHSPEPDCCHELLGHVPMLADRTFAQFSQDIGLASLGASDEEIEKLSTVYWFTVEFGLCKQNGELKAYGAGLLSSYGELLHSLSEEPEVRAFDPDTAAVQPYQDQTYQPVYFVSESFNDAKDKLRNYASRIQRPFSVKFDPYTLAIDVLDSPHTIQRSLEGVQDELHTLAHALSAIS
Description: Tyrosine hydroxylase from rat brain was used in the test.
A test compound added to 100 μM tyrosine containing L-[3,5-^3H] tyrosine (0.5 μCi/assay), 1 mg of tyrosine hydroxylase, 0.2 mM of (6R)-5,6,7,8-tetrahydro-L-biopterin, 1.8 mg/ml catalase, 5 mM dithiothreitol (in MES buffer, pH 6.0) was incubated at 37° C. for 40 minutes. The reaction was terminated by addition of 7.5% charcoal in 1 M hydrochloric acid.
^3H2O derived from 3,4-dihydroxyphenylalanine (DOPA) was determined by liquid scintillation.

SMILES	Melanin amount (% of control) ([1]; 0.1 mM)	Melanin amount (% of control) ([1]; 0.3 mM)	Melanin amount (% of control) ([1]; 1 mM)	Elastase inhibition rate (%) (elastase; 0.03 mM)	Elastase inhibition rate (%) (elastase; 0.1 mM)	Elastase inhibition rate (%) (elastase; 0.3 mM)	Elastase inhibition rate (%) (elastase; 1 mM)	Melanin amount (% of control) ([1]; 0.03 mM)	Suppressive action on melanin production (in words) [1]	Tyrosine hydroxylase inhibition rate ([2]; test compound 0.1 mM) [%]	Tyrosine hydroxylase inhibition rate ([2]; test compound 1 mM) [%]	Elastase inhibiting activity (in words) (elastase)	Melanin amount (% of control) ([1]; 10 mM)	Tyrosine hydroxylase inhibiting activity (in words) ([2]; summary of Table 1)
OC[C@H]1O[C@@H](Oc2ccc(O)cc2)[C@H](O)[C@@H](O)[C@@H]1O [Arbutin, reference compound]	97.29 % of control	88.86 % of control	83.02 % of control											
CC(C)C[C@H](NC(=O)N[C@H](C(=O)N[C@@H](CCC(N)=O)C(=O)N[C@@H](C)C=O)[C@@H]1CCNC(=N)N1)C(=O)O [Elastinal, reference compound]				25.29	56.87	77.45	93.01							
O=C(CCCCC1CC[S][Zn][S]1)NCCS(=O)(=O)[O-].[Na+] (centres unmarked) [Example 1, N-(6,8-dimercaptooctanoyl)aminoethanesulfonic acid sodium salt zinc chelate compound]	30.01 % of control	12.28 % of control						78.33 % of control	potent suppressive action on melanin production	15	53			
O=C([O-])CCCCCNC(=O)CCCCC1CC[S][Zn][S]1.[Na+] (centres unmarked) [Example 5, N-(6,8-dimercaptooctanoyl)-6-aminohexanoic acid sodium salt zinc chelate compound]	27.69 % of control	9.85 % of control		94.74				64.43 % of control	potent suppressive action on melanin production			comparable to Elastinal		
O=C([O-])CCCNC(=O)CCCCC1CC[S][Zn][S]1.[Na+] (centres unmarked) [Example 6, N-(6,8-dimercaptooctanoyl)-γ-amino-n-butyric acid sodium salt zinc chelate compound]	29.20 % of control	9.73 % of control		78.95				61.18 % of control	potent suppressive action on melanin production			comparable to Elastinal		
O=C(CCCCC1CC[S][Zn][S]1)NC(Cc1ccccc1)C(=O)[O-].[Na+] (centres unmarked) [Example 7, N-(6,8-dimercaptooctanoyl)phenylalanine sodium salt zinc chelate compound]	37.78 % of control			83.33				71.43 % of control	potent suppressive action on melanin production			comparable to Elastinal		
O=C(CCCCC1CC[S][Zn][S]1)Nc1ccccc1C(=O)[O-].[Na+] (centres unmarked) [Example 8, N-(6,8-dimercaptooctanoyl)anthranilic acid sodium salt zinc chelate compound]	47.64 % of control	16.74 % of control		24.07	48.15	72.22		72.47 % of control	potent suppressive action on melanin production			comparable to Elastinal		
CSCCC(NC(=O)CCCCC1CC[S][Zn][S]1)C(=O)O (centres unmarked) [Example 9, N-(6,8-dimercaptooctanoyl)methionine zinc chelate compound]	50.18 % of control	16.41 % of control		7.41	68.52	88.89		63.05 % of control	potent suppressive action on melanin production			comparable to Elastinal		
O=c1cc(CO)occ1O [Kojic acid, reference compound]	92.70 % of control	88.04 % of control	68.80 % of control										18.73 % of control	
O=C(CCCCC1CCSS1)NCCS(=O)(=O)[O-].[Na+] (stereo not drawn) [Reference Example 1, N-α-lipoylaminoethanesulfonic acid sodium salt]										11	10			
O=C(O)CCCCC1CCSS1 (stereo not drawn) [α-lipoic acid, reference compound]				−2.94	11.76	10.29				2	1	did not show any elastase inhibiting activity		no tyrosine hydroxylase inhibiting activity
